Test results as given in patent US4183935A, “Bispidine derivatives, their preparation, and drugs containing same” (priority 1977, dated 1980).
Counter-ions that a name gives are not always drawn. Like-named read-outs stand apart in the source and are kept apart here.

Experiments:
Format in all cases: in vivo, rats (Sprague Dawley)
[1] = test system: arrhythmias produced by aconitine; experiment: animal or person; details: for ED50: Rattus norvegicus, po, read-out: Effective dose ED50% (dose which increases by 50% the duration of infusion up to the occurrence of arrhythmias); for R.E. (relative effect, based on quinidine = 1.00): from ED50%; for R.M.E. (relative maximum effectiveness, based on quinidine = 1.00): from maximum effect; for Maximum effect: Δ% (percentage by which the duration of the aconitine infusion can be increased): rat, oral, at the maximum tolerated dose
Procedure: (§1) To determine their anti-arrhythmic activity, the substances were administered orally to rats (Sprague Dawley, weight 200-250 g) 45 minutes before starting a thiobutabarbital narcosis (100 mg/kg administered intraperitoneally). Aconitine was used to produce arrhythmias, and was infused intravenously 60 minutes after administration of the active substance (dosage rate 0.005 mg/kg per minute). In the untreated animals, arrhythmias manifest themselves after an average of 3.32 minutes, and their occurrence can be delayed by anti-arrhythmic agents, the delay being dependent on the dose. The ED50% is the does which increases by 50% the duration of infusion up to the occurrence of arrhythmias. R.E. is the relative effect, based on quinidine.ident.1.00. The maximum effect is that achieved by administering the maximum tolerated dose. .increment.% indicates the percentage by which the duration of the aconitine infusion can be increased. R.M.E. is the relative maximum effectiveness, based on quinidine.ident.1.00. The dose producing a toxic effect indicates the amount (in mg/kg) at which the first toxic symptoms such as cyanosis or changes in ECG occur. Q is the quotient of the toxic dose and the ED50%.

in vivo = details: in vivo; rat, oral; dose at which the maximum effect is achieved; read-out: Maximum effect: Dose (maximum tolerated dose)
Procedure: as §1

[2] = toxic effect: dose at which first toxic symptoms such as cyanosis or changes in ECG occur; details: for Toxic effect: Dose (dose producing a toxic effect): first toxic symptoms such as cyanosis or changes in ECG; for selectivity ratio: rat, in vivo, po
Procedure: as §1

[3] = toxic dose / ED50%, read-out: Q (quotient of the toxic dose and the ED50%)

Row | Structure (SMILES) | ED50 [1] [mg/kg] | R.E. (relative effect, based on quinidine = 1.00) [1] | R.M.E. (relative maximum effectiveness, based on quinidine = 1.00) [1] | Maximum effect: Δ% (percentage by which the duration of the aconitine infusion can be increased) [1] [%] | MTD (in vivo) [mg/kg] | Toxic effect: Dose (dose producing a toxic effect) [2] [mg/kg] | selectivity ratio [2, 3] | selectivity ratio [2]
1 | Fc1ccc(CN2CC3CC(CN(Cc4ccccc4)C3)C2)cc1 [H H F 0, N-Benzyl-N'-(4-fluorobenzyl)-bispidine fumarate] | 20.2 | 2.11 | 1.80 | 240 | 100 | 215 | 10.6 | –
2 | Clc1ccc(CN2CC3CC(CN(Cc4ccccc4)C3)C2)cc1Cl [H Cl Cl 0, N-Benzyl-N'-(3,4-dichlorobenzyl)-bispidine fumarate] | 15.6 | 2.74 | 2.13 | 283 | 215 | 464 | 29.7 | –
3 | Clc1cccc(CN2CC3CC(CN(Cc4ccccc4)C3)C2)c1 [H Cl H 0, N-benzyl-N'-(3-chlorobenzyl)-bispidine fumarate] | 16.6 | 2.57 | 0.92 | 123 | 46.4 | 100 | 6 | –
4 | C=C[C@H]1C[N@@]2CC[C@H]1C[C@@H]2[C@@H](O)c1ccnc2ccc(OC)cc12 [Quinidine, reference compound] | 42.7 | 1.00 | 1.00 | 133 | 215 | 464 | – | 10.9
5 | FC(F)(F)c1cccc(CN2CC3CC(CN(Cc4ccccc4)C3)C2)c1 [H CF3 H 0, N-Benzyl-N'-(3-trifluoromethylbenzyl)-bispidine fumarate] | 25.4 | 1.68 | 1.82 | 242 | 100 | 215 | – | –
6 | c1ccc(CN2CC3CC(C2)CN(C(c2ccccc2)c2ccccc2)C3)cc1 [C6 H5 H H 0, N-Benzyl-N'-benzhydryl-bispidine fumarate] | 20.4 | 2.09 | 1.54 | 205 | 215 | 464 | 22.8 | –
7 | c1ccc(CN2CC3CC(C2)CN(CC(c2ccccc2)c2ccccc2)C3)cc1 [C6 H5 H H 1, N-benzyl-N'-2,2-diphenylethylbispidine fumarate x H2 O] | 13 | 3.28 | 1.53 | 203 | 46.4 | 100 | 7.7 | –
